Measured values published in patent US10195196B2, “1,4-disubstituted pyridazine analogs there of and methods for treating SMN-deficiency-related conditions” (NOVARTIS AG, priority 2012, dated 2019).

System: SMN protein
Experiment: cellular SMN ELISA (SMN protein elevation)
Assay type: cell-based
Conditions: myoblast cell line from SMNdelta7 mouse model, 24 hours treatment; for SMN activity Fold: fold activation over DMSO control
In short: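 SMNdelta7 mouse-derived myoblasts were treated with compound for 24 h, then lysed. SMN protein was quantified by sandwich ELISA (HRP/TMB, 450 nm) and reported as fold over DMSO and EC50, over 20 nM–10 μM or 100 pM–10 μM depending on condition.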

[1] = ELISA condition 2: compound concentration 100 pM-10 uM
[2] = ELISA condition 1: compound concentration range 20 nM-10 uM

Structure (SMILES) | EC50 [1] [nM] | SMN activity Fold [1] [Fold] | EC50 [2] [nM] | SMN activity Fold [2] [Fold]
Oc1cc2ccccc2cc1-c1ccc(NC2CNC2)nn1 [Example 18-2, 3-[6-(azetidin-3-ylamino)-pyridazin-3-yl]-naphthalen-2-ol] | 3230 | 1.97 |  | 
CN(c1ccc(-c2ccc(-c3ccn(C4CC4)c(=O)c3)cc2O)nn1)C1CC(C)(C)NC(C)(C)C1 [Example 41-14, 1-cyclopropyl-4-(3-hydroxy-4-(6-(methyl(2,2,6,6-tetramethylpiperidin-4-yl)amino)pyridazin-3-yl)phenyl)pyridin-2(1H)-one] | 84 | 3.21 |  | 
CN1C[C@@H]2CN(c3ccc(-c4ccc(-c5ccn(C)c(=O)c5)cc4O)nn3)C[C@@H]2C1 [Example 43-4, 4-(3-hydroxy-4-(6-(5-methylhexahydropyrrolo[3,4-c]pyrrol-2(1H)-yl)pyridazin-3-yl)phenyl)-1-methylpyridin-2(1H)-one] | 41 | 2.94 |  | 
C=CCNC(=O)c1ccc(-c2ccc(N(C)C3CC(C)(C)NC(C)(C)C3)nn2)c(O)c1 [Example 8-1, N-allyl-3-hydroxy-4-(6-(methyl(2,2,6,6-tetramethylpiperidin-4-yl)amino)pyridazin-3-yl)benzamide] |  |  | 280 | 2.72
Oc1cc(-n2cccn2)ccc1-c1ccc(N2CCC3(CC2)CNC3)nn1 [Example 18-9, 2-[6-(2,7-diaza-spiro[3.5]non-7-yl)-pyridazin-3-yl]-5-pyrazol-1-yl-phenol] |  |  | 1180 | 1.93
COc1cc(-c2cnc3n2CCCC3)cc(O)c1-c1ccc(N(C)C2CC(C)(C)NC(C)(C)C2)nn1 [Example 26-2, 3-methoxy-2-(6-(methyl(2,2,6,6-tetramethylpiperidin-4-yl)amino)pyridazin-3-yl)-5-(5,6,7,8-tetrahydroimidazo[1,2-a]pyridin-3-yl)phenol] | 97 | 2.61 |  | 
Oc1cc(-n2cccn2)ccc1-c1ccc(N2C[C@H]3CNC[C@H]3C2)nn1 [Example 18-17, 2-(6-((3aR,6aS)-hexahydropyrrolo[3,4-c]pyrrol-2(1H)-yl)pyridazin-3-yl)-5-(1H-pyrazol-1-yl)phenol] | 158 | 2.85 |  | 
COc1cc(-c2cccnc2)cc(O)c1-c1ccc(N(C)C2CC(C)(C)NC(C)(C)C2)nn1 [Example 26-3, 3-methoxy-2-(6-(methyl(2,2,6,6-tetramethylpiperidin-4-yl)amino)pyridazin-3-yl)-5-(pyridin-3-yl)phenol] | 47 | 2.70 |  | 
CN(c1ccc(-c2ccc(-c3cncnc3)cc2O)nn1)C1CC(C)(C)NC(C)(C)C1 [Example 41-12, 2-(6-(methyl(2,2,6,6-tetramethylpiperidin-4-yl)amino)pyridazin-3-yl)-5-(pyrimidin-5-yl)phenol] | 103 | 2.92 |  | 
CN(c1ccc(-c2cc(C(=O)NCc3cnn(C)c3)ccc2O)nn1)C1CC(C)(C)NC(C)(C)C1 [Example 36-1, 4-hydroxy-3-(6-(methyl(2,2,6,6-tetramethylpiperidin-4-yl)amino)pyridazin-3-yl)-N-((1-methyl-1H-pyrazol-4-yl)methyl)benzamide] | 652 | 2.04 |  | 
CN(c1ccc(-c2cc3ccc(C4CCOCC4)cc3cc2O)nn1)C1CC(C)(C)NC(C)(C)C1 [Example 24-9, 3-(6-(methyl(2,2,6,6-tetramethylpiperidin-4-yl)amino)pyridazin-3-yl)-7-(tetrahydro-2H-pyran-4-yl)naphthalen-2-ol] | 338 | 2.65 |  | 
CN(c1ccc(-c2cc(F)c(-c3cn[nH]c3)cc2O)nn1)C1CC(C)(C)NC(C)(C)C1 [Example 34-2, 4-fluoro-2-(6-(methyl(2,2,6,6-tetramethylpiperidin-4-yl)amino)pyridazin-3-yl)-5-(1H-pyrazol-4-yl)phenol] | 2 | 2.49 |  | 
CC1(C)CC(Oc2ccc(-c3cc4ccccc4s3)nn2)CC(C)(C)N1 [Example 1-6, 3-(benzo[b]-thiophen-2-yl)-6-(2,2,6,6-tetra-methylpiperidin-4-yloxy)pyridazine] |  |  | 2440 | 2.00
Oc1cc2ccccc2cc1-c1ccc(CC2CCNCC2)nn1 [Example 21-1, 3-(6-(piperidin-4-ylmethyl)pyridazin-3-yl)naphthalen-2-ol] | 959 | 2.35 |  | 
